Test results as given in patent publication US20180008542A1, “PHARMACEUTICAL COMPOSITION” (priority 2003, published 2018).

Key:
[1] = Laser diffraction particle size analysis (Mastersizer 2000); assay type: physicochemical; conditions: continuous flow precipitator, into isopropanol; coated samples 10% protein loading
Protocol: Laser diffraction particle size analysis was carried out on bioactive coated particles using a Mastersizer 2000. Briefly, enough PCMC was added to the sample holder of the Mastersizer 2000 containing 60 ml of 2-propanol to ensure a laser obscuration of between 10 and 20%. Measurements were then taken using a previously set up Standard Operating Procedure. d(0.1)(μm)=10% of the particles are below this particle size d(0.5)(μm)=50% of the particles are above and below this particle size d(0.9)(μm)=90% of the particles are below this particle size. Span=d(0.9)−d(0.1)/d(0.5)
Span gives a good indication of population homogeneity.

[2] = tested on: resistance arteries; test: Ex-vivo insulin bioactivity, wire myograph; assay type: cell-based, Wistar rats; conditions: pre-constriction with thromboxane mimetic [U44169]
Protocol: A pressure myograph which allowed luminal application of drug provided initial measures of sensitivity. In the pressure system, arteries mounted on opposing glass cannula (outer dimension 80 μm) were gradually pressurized from <5 mmHg to 40 mmHg over 15 mins and held for 15 mins more before starting the assay. Responses were measured using proprietary video analysis software (MyoView). […] The arteries were then exposed to increasing concentrations of insulin either directly into the bath (wire) or by gradual infusion directly into the lumen via a fetal microcannulae inserted to the tip of the glass mounting cannula, at a constant pressure (pressure). Following pre-constriction with thromboxane mimetic [U44169] the insulin-mediated vasorelaxation profile is typical for insulin and exerts its effect mainly via the activation of nitric oxide synthase and the subsequent release of endothelial nitric oxide.

[3] = Zeta potential (Malvern Zetasizer, suspension in acetonitrile); assay type: physicochemical; conditions: for Zeta potential (sign): dilute suspension in acetonitrile; for Zeta potential (mV): microcrystals in non-aqueous medium, precipitation pH 5.59-7.02 as given per sample
Source text: The core microcrystal and protein coating that are characteristic of protein coated coated microcrystals arise from a single continuous self-assembly process. In order to assess whether electrostatic binding of the bioactive molecule to pre-formed microcrystals might be important in the mechanism of this process it was of interest to measure the surface potential of the microcrystals in a non-aqueous medium. The liquid layer surrounding a charged particle exists as two parts; an inner region (Stern layer) where the ions are strongly bound and an outer (diffuse) region where they are less firmly associated. Within the diffuse layer there is a notional boundary inside which the ions and particles form a stable entity. When a particle moves (e.g. due to gravity), ions within the boundary move too. […] The potential at this boundary (surface of hydrodynamic shear) is the zeta potential. The sign and magnitude of the zeta potential depends on the surface charge of the particle with for example a negative zeta potential indicating a particle with an overall negative charge. A Malvern Zetasizer that employs laser Doppler velocimetry was used to measure the sign and approximate magnitude of the Zeta potential of microcrystals produced by precipitation of various core materials at fixed pH. The measurements were made on pre-prepared microcrystals or protein coated microcrystals suspended as dilute suspension in acetonitrile. A polystyrene latex was used to calibrate the machine. […] If electrostatic binding is important to the mechanism of formation it would be expected that only biomolecules with an overall positive charge would be expected to form a coating on these negatively charged materials. The charge on a protein is a function of pH. It will be negative at pH values above the pI and positive at a pH below the pI.

[4] = above 80% RH
Protocol: The uptake of water by bioactive molecule coated particles produced by the present co-precipitation process and of the core material precipitated alone under a controlled humidified environment was carried out by Dynamic Vapor Sorption (DVS) using Dynamic Vapor Sorption 1000 (Surface Measurement Systems).
The Experimental set-up was as follows.
The DVS used a 2 full-cycle experimental Special Automatic Operation (SAO) protocol that included an initial drying stage at 0% Relative Humidity (RH). […] This was proceeded by an identical desorption cycle down to 0% RH. This cycle was repeated. The following criteria was used to control the DVS stage change: either the rate of change of the increase in mass i.e. dm/dt dropped to 0.002, or the maximum stage time was 2000 minutes.
Prior to introduction of the sample, the balance was tared and the instrument was allowed to equilibrate until a stable baseline was observed. The particles were then loaded and the initial weight recorded, followed by switching on the SAO. The experiment ran until the completion of the SAO.

[5] = tested on: resistance arteries; test: Ex-vivo insulin bioactivity, pressure myograph; assay type: cell-based, Wistar rats; conditions: mean of 3 (SD)
Protocol: Insulin bioactivity assays were carried out on resistance arteries ([…]) isolated from 12 week old male Wistar rats studied in heated (37° C.) and gassed (95% O2/5% CO2) physiological salt solution (PSS) to achieve a pH of 7.4. A pressure myograph which allowed luminal application of drug provided initial measures of sensitivity. In the pressure system, arteries mounted on opposing glass cannula (outer dimension 80 μm) were gradually pressurized from <5 mmHg to 40 mmHg over 15 mins and held for 15 mins more before starting the assay. Responses were measured using proprietary video analysis software (MyoView). The pressure myograph is able to detect the vasodilatory effect of insulin at very low concentrations (1×10^−10 M).

[6] = HPLC analysis of insulin after reconstitution; conditions: retained in the same aqueous solution used for co-precipitation

Compound	Span [1]	d(0.5)/microns [1] [microns]	insulin mediated vasorelaxation [2]	Zeta potential (sign) [3]	Zeta potential (mV) [3] [mV]	water uptake [4]	insulin mediated relaxation to noradrenaline pre-constriction (100=100% constriction) ([5]; Log M −9)	insulin mediated relaxation to noradrenaline pre-constriction (100=100% constriction) ([5]; Log M −10)	insulin mediated relaxation to noradrenaline pre-constriction (100=100% constriction) ([5]; Log M −11)	time to significant changes [6]
CC(C)C(N)C(=O)O (racemic) [D,L-valine]	1.32	21.810	no bioactivity	negative	−19.6	–	–	–	–	–
NCC(=O)O [Glycine, glycine]	1.72	58.370	–	negative	−49.7	start to take up appreciable amounts of water	–	–	–	–
NC(=O)CC[C@H](N)C(=O)O [L-glutamine]	1.88	36.373	–	negative	−54.8	–	–	–	–	–
Commercial Insulin: USP bovine pancreas insulin control	–	–	–	–	–	–	65 (23) %	84 (7) %	100 (0) %	less than 30 minutes
